Literature values as cited in US7588929B2, “Production of bacteriophage compositions for use in phage therapy” (Phage Biopharm LLC, priority 2002, dated 2009).

Test system: phage-2 inactivation by BI-LPS
Settings: inactivation 95% in controls without sugar

Structure (SMILES) | concentration reducing inactivation to 50%
O=CC[C@@H](O)[C@H](O)[C@H](O)CO [2-deoxy-D-glucose] | 1 M
O=C[C@H](O)[C@@H](O)[C@@H](O)[C@H](O)CO [D-galactose] | about 1.4 M
N[C@H]1C(O)O[C@H](CO)[C@@H](O)[C@@H]1O (stereo partly drawn) [D-glucosamine] | 0.25-0.3 M
O=C[C@H](O)[C@@H](O)[C@H](O)[C@H](O)CO [D-glucose] | 1 M
O=C[C@@H](O)[C@@H](O)[C@H](O)[C@H](O)CO [D-mannose] | 1 M
O=C[C@H](O)[C@@H](O)[C@H](O)CO [D-xylose] | about 1.4 M
C[C@H](O)[C@H](O)[C@@H](O)[C@@H](O)C=O [L-rhamnose] | 1 M
CC(=O)N[C@H]1C(O)O[C@H](CO)[C@@H](O)[C@@H]1O (stereo partly drawn) [N-acetyl-D-glucosamine] | about 1.4 M
